Measurements: patent US10065948B2, “Histone deacetylase inhibitors and compositions and methods of use thereof” (CHDI Foundation, Inc., priority 2014, dated 2018)

Key:
[1] = molecular target: Histone Deacetylase 4 (HDAC4) catalytic domain (Homo sapiens (Human), UniProt P56524); assay: Biochemical HDAC inhibition assay, fluorogenic substrate Boc-Lys(Tfa)-AMC
Procedure: The potency of compounds is quantified by measuring the Histone Deacetylase 4 (HDAC4) catalytic domain enzymatic activity using the fluorogenic substrate, Boc-Lys(Tfa)-AMC. The substrate is deacetylated to Boc-Lys-AMC by HDAC4. Cleavage by trypsin results in the release of the fluorophore AMC from the deacetylated substrate. The fluorescence of the sample is directly related to the histone deacetylase activity in the sample.
Stocks of 60 μL aliquots of the 10 mM compound in DMSO are prepared and stored at −20° C. From one stock aliquot of each compound to be tested and the reference compound, a 16-point serial dilution is prepared according to Table 1 using a 125 μL 16-channel Matrix multi-channel pipette (Matrix Technologies Ltd).
2 μL (200×) of each diluted solution and each control (full activity: 100% DMSO alone or full inhibition 1 mM) is stamped into V-bottomed polypropylene 384-well compound plates using either the Bravo (384-well head from Agilent) or 12.5 μL 16-channel Matrix multi-channel pipette (Matrix Technologies Ltd). Each well with the 200× compound solution is diluted 1:20 by the addition of 38 μL assay buffer+DMSO (10.5% DMSO, 45 mM Tris-HCl, 123 mM NaCl, 2.4 mM KCl, and 0.9 mM MgCl2 at pH 8.0 and equilibrated to room temperature).
The HDAC4 catalytic domain enzyme is human catalytic domain HDAC4 protein (amino acids 648-1032) with a C-terminal 6× histidine tag, produced by BioFocus. A working solution of enzyme is prepared from a 500 μg/mL stock aliquot of HDAC4 catalytic domain (thawed on ice) diluted to 0.2 μg/mL with assay buffer (50 mM Tris-HCl, 137 mM NaCl, 2.7 mM KCl, and 1 mM MgCl2 at pH 8 and equilibrated to room temperature) just prior to the addition of the enzyme to the assay.
5× (50 μM) substrate is prepared just prior to the addition to the assay. A 1 mM substrate stock is made by diluting a 100 mM Boc-Lys(Tfa)-AMC in DMSO solution 1:100 by adding it drop-wise to assay buffer (equilibrated to room temperature) while vortexing at slow speed to prevent precipitation. The 5× substrate is prepared by diluting the 1 mM substrate solution 1:20 by adding it drop-wise to assay buffer (equilibrated to room temperature) while vortexing at slow speed to prevent precipitation.
3× (30 μM) Developer/Stop Solution is prepared just prior to addition to the plate by diluting a stock solution of 10 mM reference compound 1:333 in 25 mg/mL trypsin (PAA Laboratories Ltd.) equilibrated to room temperature.
5 μL of each solution of 1:20 diluted compound from above is transferred to a clear bottomed, black, 384-well assay plate using the Bravo or the Janus (384-well MDT head from Perkin Elmer). Using a 16-channel Matrix multi-channel pipette, 35 μL of the working solution of HDAC4 catalytic domain enzyme (0.2 μg/mL in assay buffer) is transferred to the assay plate. […] The assay plate is then shaken for two minutes on an orbital shaker at 900 rpm (rotations per minute). Next the plate is incubated for 15 minutes at 37° C. The reaction is stopped by adding 25 μL of 3× (30 μM) developer/stop solution to the assay plates using either the Bravo, Janus or a 16-channel Matrix multi-channel pipette. Assay plates are then shaken for 5 minutes on an orbital shaker at 1200 rpm. Next, the assay plates are incubated at 37° C. for 1 hour in a tissue culture incubator. Finally, the fluorescence is measured (Excitation: 355 nm, Emission: 460 nm) using PerkinElmer EnVision in top read mode.

[2] = test system: cellular histone deacetylase enzymatic activity in Jurkat E6-1 cells; assay: Inhibition of cellular HDAC activity, Boc-Lys(Tfa)-AMC substrate (Cell Lys-TFA); type: cell-based
Procedure: The potency of the compounds is quantified by measuring the cellular histone deacetylase enzymatic activity using the fluorogenic substrate, Boc-Lys(Tfa)-AMC. After penetration in Jurkat E6-1 cells, the substrate is deacetylated to Boc-Lys-AMC. After cell lysis and cleavage by trypsin, the fluorophore AMC is released from the deacetylated substrate only. The fluorescence of the sample is directly related to the histone deacetylase activity in the sample.
Jurkat E6.1 cells are cultured according to standard cell culture protocols in Jurkat E6.1 Growth Media (RPMI without phenol red, 10% FBS, 10 mM HEPES, and 1 mM Sodium Pyruvate). Jurkat E6.1 cells are counted using a Coulter Counter and resuspended in Jurkat E6.1 growth media at a concentration of 75,000 cells/35 μL. 35 μL or 75,000 cells is seeded into Greiner microtitre assay plates. The plates are then incubated at 37° C. and 5% CO2 while other assay components are being prepared.
Stocks of 70 μL aliquots of the 10 mM compound in DMSO are prepared and stored at −20° C. From one stock aliquot of each compound to be tested and the reference compound, a 16-point serial dilution is prepared according to Table 1 using a 125 μL 16-channel Matrix multi-channel pipette.
2 μL (200×) of each diluted solution and each control (full activity: 100% DMSO alone or full inhibition 1 mM) is stamped into V-bottom polypropylene 384-well compound plates using either the Bravo, Janus, or 12.5 μL 16-channel Matrix multi-channel pipette. Each well with the 200× compound solution is diluted 1:20 by the addition of 38 μL Jurkat assay buffer+DMSO (9.5% DMSO, RPMI without phenol red, 0.09% FBS, 9 mM Hepes, and 0.9 mM Sodium Pyruvate equilibrated to room temperature)
5× (500 μM) substrate is prepared just prior to the addition to the assay. The 5× substrate is prepared by diluting a 100 mM Boc-Lys(Tfa)-AMC in DMSO solution 1:200 by adding it drop-wise to Jurkat assay medium (RPMI without phenol red, 0.1% FBS, 10 mM Hepes, and 1 mM Sodium Pyruvate equilibrated to 37° C.) while vortexing at slow speed to prevent precipitation.
10 mL of 3× lysis buffer is prepared with 8.8 ml of 3× stock lysis buffer (50 mM Tris-HCl, pH 8.0, 137 mM NaCl, 2.7 mM KCl, 1 mM MgCl2, 1% Nonidet P40 Substitute equilibrated to room temperature) and 1.2 mL of 3 mg/mL Trypsin equilibrated to room temperature.
5 μL of each solution of 1:20 diluted compound from above is transferred to the Greiner microtitre assay plates with 75,000 cells/well using the Bravo. Cells are then incubated for 2 hours at 37° C. and 5% CO2. […] The cells are then incubated for 3 hours at 37° C. and 5% CO2. Next, 25 μL of 3× lysis buffer is added to each well using either the 125 μL 16 channel pipette or the Bravo. The assay plate is then incubated overnight (15-16 hours) at 37° C. and 5% CO2. The following day, the plates are shaken on an orbital shaker for 1 minute at 900 rpm. Finally the top read fluorescence (Excitation: 355 nm, Emission: 460 nm) is measured using PerkinElmer EnVision.

[3] = test system: cellular histone deacetylase activity (Lys-Ac); assay: Inhibition of cellular HDAC activity (Cell Lys-Ac); type: cell-based; settings: Lys-Ac substrate
[4] = Homo sapiens, Jurkat E6.1, Lys-TFA substrate

Sequence of Histone Deacetylase 4 (HDAC4) catalytic domain (P56524 648-1032): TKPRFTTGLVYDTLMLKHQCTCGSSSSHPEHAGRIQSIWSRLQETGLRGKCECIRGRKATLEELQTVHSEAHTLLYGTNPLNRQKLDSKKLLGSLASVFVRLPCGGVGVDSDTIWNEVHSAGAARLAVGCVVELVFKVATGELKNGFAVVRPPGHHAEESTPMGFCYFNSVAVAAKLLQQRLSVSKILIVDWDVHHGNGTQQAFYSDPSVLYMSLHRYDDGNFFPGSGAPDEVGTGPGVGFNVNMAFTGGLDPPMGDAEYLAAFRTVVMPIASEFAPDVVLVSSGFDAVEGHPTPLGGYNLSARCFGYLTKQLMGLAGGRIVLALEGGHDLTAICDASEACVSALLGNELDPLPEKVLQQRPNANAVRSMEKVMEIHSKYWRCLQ

Structure (SMILES) | IC50 [1] [nM] | IC50 ([2]; Lys-TFA substrate) [nM] | IC50 [3] [nM] | IC50 [2, 4] [nM]
Cc1c(F)cccc1C1(C(=O)NO)CCc2c(cnn2-c2ccccc2)C1 (single isomer, unassigned) [Example 31, E1-(abs)-5-(3-Fluoro-2-methylphenyl)-N-hydroxy-1-phenyl-4,5,6,7-tetrahydro-1H-indazole-5-carboxamide] | 820 | 72 | > 50000 | 
Cc1c(F)cccc1C1(C(=O)NO)CCc2c(cnn2-c2ccccc2)C1 (single isomer, unassigned) [Example 32, E2-(abs)-5-(3-fluoro-2-methylphenyl)-N-hydroxy-1-phenyl-4,5,6,7-tetrahydro-1H-indazole-5-carboxamide] | 17300 | 2900 | > 50000 | 
Cc1c(F)cccc1C1(C(=O)NO)Cc2nc(-c3ccccc3F)sc2C1 (single isomer, unassigned) [Example 61, E1-(abs)-5-(3-Fluoro-2-methylphenyl)-2-(2-fluorophenyl)-N-hydroxy-5,6-dihydro-4H-cyclopenta[d]thiazole-5-carboxamide] | 480 | 120 | > 50000 | 
Cc1c(F)cccc1C1(C(=O)NO)Cc2nc(-c3ccccc3F)sc2C1 (single isomer, unassigned) [Example 62, E2-(abs)-5-(3-fluoro-2-methylphenyl)-2-(2-fluorophenyl)-N-hydroxy-5,6-dihydro-4H-cyclopenta[d]thiazole-5-carboxamide] | 193 | 49 | > 50000 | 
Cc1cc(F)ccc1-c1nc2c(s1)CC(C(=O)NO)(c1cccc(F)c1C)C2 (single isomer, unassigned) [Example 74, E1-(abs)-5-(3-Fluoro-2-methylphenyl)-2-(4-fluoro-2-methylphenyl)-N-hydroxy-5,6-dihydro-4H-cyclopenta[d]thiazole-5-carboxamide] | 780 | 540 | > 50000 | 
Cc1cc(F)ccc1-c1nc2c(s1)CC(C(=O)NO)(c1cccc(F)c1C)C2 (single isomer, unassigned) [Example 75, E2-(abs)-5-(3-Fluoro-2-methylphenyl)-2-(4-fluoro-2-methylphenyl)-N-hydroxy-5,6-dihydro-4H-cyclopenta[d]thiazole-5-carboxamide] | 270 | 51 | > 50000 | 
Cc1c(F)cccc1C1(C(=O)NO)Cc2nc(-c3cnn(C)c3C)sc2C1 (single isomer, unassigned) [Example 76, E1-(abs)-2-(1,5-Dimethyl-1H-pyrazol-4-yl)-5-(3-fluoro-2-methylphenyl)-N-hydroxy-5,6-dihydro-4H-cyclopenta[d]thiazole-5-carboxamide] | 68 | 36 | > 50000 | 
Cc1c(F)cccc1C1(C(=O)NO)Cc2nc(-c3cnn(C)c3C)sc2C1 (single isomer, unassigned) [Example 77, E2-(abs)-2-(1,5-dimethyl-1H-pyrazol-4-yl)-5-(3-fluoro-2-methylphenyl)-N-hydroxy-5,6-dihydro-4H-cyclopenta[d]thiazole-5-carboxamide] | 200 | 128 | > 50000 | 
Cc1c(F)cccc1C1(C(=O)NO)CCc2cn(CC(F)(F)F)nc2CC1 (single isomer, unassigned) [Example 84, E1-(abs)-6-(3-Fluoro-2-methylphenyl)-N-hydroxy-2-(2,2,2-trifluoroethyl)-2,4,5,6,7,8-hexahydrocyclohepta[c]pyrazole-6-carboxamide] | 480 |  | > 50000 | 1400
Cc1c(F)cccc1C1(C(=O)NO)CCc2cn(CC(F)(F)F)nc2CC1 (single isomer, unassigned) [Example 85, E2-(abs)-6-(3-fluoro-2-methylphenyl)-N-hydroxy-2-(2,2,2-trifluoroethyl)-2,4,5,6,7,8-hexahydrocyclohepta[c]pyrazole-6-carboxamide] | 790 | 1800 | > 50000 | 
Cc1c(F)cccc1[C@]1(C(=O)NO)Cc2cnn(-c3ccccc3)c2C1 [Example 1, (S)-5-(3-Fluoro-2-methylphenyl)-N-hydroxy-1-phenyl-1,4,5,6-tetrahydrocyclopenta[c]pyrazole-5-carboxamide] | 28 |  | > 50000 | 59
Cc1c(F)cccc1[C@]1(C(=O)NO)Cc2cnn(-c3ccccc3F)c2C1 [Example 3, (S)-5-(3-Fluoro-2-methylphenyl)-1-(2-fluorophenyl)-N-hydroxy-1,4,5,6-tetrahydrocyclopenta[c]pyrazole-5-carboxamide] | 17 |  | > 50000 | 33
O=C(NO)[C@@]1(c2ccccc2)CCc2ccccc21 [Example 88, E2-(abs)-N-hydroxy-1-phenyl-2,3-dihydro-1H-indene-1-carboxamide] |  |  | > 50000 | > 50000
O=C(NO)C1(c2ccccc2)Cc2ccccc2C1 [Example 89, N-Hydroxy-2-phenyl-2,3-dihydro-1H-indene-2-carboxamide] |  |  | > 50000 | > 50000
Cc1c(F)cccc1[C@]1(C(=O)NO)Cc2cnn(-c3ccc(F)cc3Cl)c2C1 [Example 90, (S)-1-(2-Chloro-4-fluorophenyl)-5-(3-fluoro-2-methylphenyl)-N-hydroxy-1,4,5,6-tetrahydrocyclopenta[c]pyrazole-5-carboxamide] |  |  | > 50000 | 15
